Patent US11242337B2, “Compounds useful for treating gastrointestinal tract disorders” (Ardelyx, Inc., priority 2017, dated 2022)

System: gastrointestinal transit
Experiment: Restoration of gastrointestinal motility in opioid induced constipation (loperamide)
Format: in vivo, mice
Conditions: vehicle orally, loperamide (0.3 to 6 mg/kg) subcutaneously, 30-minute period
Method: Approximately eight-week old, female, CD1 […] are purchased from Envigo (Livermore, Calif.), are housed 4 per cage and acclimated for at least 48 hours before study initiation. Animals are fed standard laboratory rodent chow Harlan Teklad Global 2018 (Madison, Wis.). Animals have ad libitum access to food and water for the duration of the acclimation period and are maintained in a temperature and humidity controlled room on a standard light/dark cycle of 6 AM to 6 PM. Following an overnight fast, with free access to water, animals are dosed by oral gavage with varying doses of test compound or vehicle (3 mM HCl, 0.01% Tween80), at a dose volume of 5 mL/kg. […] For an individual animal, the length travels by the Evans Blue dye front is divided by the length of the whole small intestine, measured from the pylorus to the cecum, and multiplied by 100, to provide the distance of the small intestine travelled by the dye as a percentage.

CN(C)C(=O)C(CCN1CCC(O)(c2ccc(Cl)cc2)CC1)(c1ccccc1)c1ccccc1 [loperamide, reference compound]
length of the small intestine travelled by the Evans Blue dye front: ~25%
